In patent US5912231A, “Substitution analogues of magainin peptides” (priority 1994, dated 1999):
Read-outs that look alike come from different tables or passages of the source. Residues, ends and D or L forms follow the SMILES beside them.

How the values were obtained:
Type in all cases: cell-based
[1] = test system: Staphylococcus epidermidis; settings: 6 h
Description: (§1) Antimicrobial assays (for Examples 3 to 27) were carried out in 96-well tissue culture plates. Each well was incubated with a given microorganism (Escherichia coli, Staphylococcus epidermidis, Staphylococcus aureus, or Pseudomonas aeruginosa) suspended in LB medium (Examples 3-17), or TSB medium (Examples 18-27). Upon the addition of Magainin I or its substitution analogues, (dissolved in 1×PBS, pH 7.0) each well contained a final cell density of 1.0×10^6 colony forming units (CFU)/ml. The final peptide concentrations used were 100 μg/ml., 75.0 μg/ml, 50.0 μg/ml, 25 μg/ml, 12.5 μg/ml, 10 μg/ml, 5μg/ml, 2.5 μg/ml, and 1.25 μg/ml.
(§2) Addition of peptides to the wells was defined as time zero. At six hours, the plates were placed in a Titertek Multiskan apparatus and the O.D.620 determined. The plates as well as the initial innoculum were incubated at 37° C.
(§3) Five wells per plate contained media alone, while five others contained medium plus cells. These controls were used to eliminate the possibility of media contamination while providing a measure of uninhibited growth of the microorganisms.
(§4) The degree of peptide activity was determined by comparing the substitution analogues with uninhibited growth of the control cells over a six-hour period.

Escherichia coli = settings: 6 h
Description: as §1, §2, §3, §4

Pseudomonas aeruginosa = settings: TSB medium, 6 h
Description: as §1, §2, §3, §4

Staphylococcus aureus = settings: at 50 μg/ml peptide; LB medium; 6 h
Description: as §1, §2, §3, §4

[2] = at 10 μg/ml peptide, TSB medium
[3] = at 25 μg/ml peptide, TSB medium

CC[C@H](C)[C@H](NC(=O)CN)C(=O)NCC(=O)N[C@@H](CCCCN)C(=O)N[C@@H](CCCCN)C(=O)N[C@@H](CC(C)C)C(=O)N[C@@H](Cc1c[nH]cn1)C(=O)N[C@@H](CCCCN)C(=O)N[C@@H](CCCCN)C(=O)NCC(=O)N[C@@H](CCCCN)C(=O)N[C@@H](Cc1ccccc1)C(=O)NCC(=O)N[C@@H](CCCCN)C(=O)N[C@@H](Cc1ccccc1)C(=O)N[C@@H](CCCCN)C(=O)NCC(=O)N[C@@H](C)C(=O)N[C@H](C(=O)N[C@@H](CC(C)C)C(=O)N[C@@H](CCCCN)C(=O)N[C@@H](C)C(=O)O)[C@@H](C)CC [Example 8] (H-GIGKKLHKKGKFGKFKGAILKA-OH)
100%: % effective growth inhibition of S. epidermidis ([1]; at 5 μg/ml peptide, TSB medium) | % effective growth inhibition of S. epidermidis [1, 2] | % effective growth inhibition of S. epidermidis [1, 3] | % effective growth inhibition of S. epidermidis ([1]; at 50 μg/ml peptide, LB medium) | % effective growth inhibition of S. epidermidis ([1]; at 75 μg/ml peptide, LB medium) | % effective growth inhibition of E. coli (Escherichia coli; at 5 μg/ml peptide, LB medium) | % effective growth inhibition of E. coli (Escherichia coli; at 5 μg/ml peptide, TSB medium) | % effective growth inhibition of E. coli (Escherichia coli; [2]) | % effective growth inhibition of E. coli (Escherichia coli; at 25 μg/ml peptide, LB medium) | % effective growth inhibition of E. coli (Escherichia coli; [3]) | % effective growth inhibition of E. coli (Escherichia coli; at 75 μg/ml peptide, LB medium) | % effective growth inhibition of E. coli (Escherichia coli; at 100 μg/ml peptide, LB medium) | % effective growth inhibition of P. aeruginosa (Pseudomonas aeruginosa; at 5 μg/ml peptide) | % effective growth inhibition of P. aeruginosa (Pseudomonas aeruginosa; at 10 μg/ml peptide) | % effective growth inhibition of P. aeruginosa (Pseudomonas aeruginosa; at 25 μg/ml peptide)

GIGKFILHAAGKFGKAFVGIMKS (GIGKFLHAAGKFGKAFVGIMKS) [Magainin I, residue 19 deleted, residue 8 alanine]
100%: % effective growth inhibition of S. aureus (Staphylococcus aureus) | % effective growth inhibition of S. epidermidis ([1]; at 25 μg/ml peptide, LB medium) | % effective growth inhibition of E. coli (Escherichia coli; at 2.5 μg/ml peptide, LB medium)
